Experimental data reported in the supplement of paper PMC11208160.

Assay: recombinant UMI read abundance after kanamycin selection (control-corrected) (log10(CPM+1)); higher = more efficient recombination; extreme values may be limits of the assay; sequences stand for … in AGTGCAGAGAAAATCGGCCAGTTTTCTCTGCCTGCAGTCCGCATGCCGTGGGACCCCTTGGGTTCTAACCTGTTGCCTAGATTTATGCAGCGGACTGCCTTTCTCCCAAAGTGATAAACCGG…AGGTTGGTTTCACT; site = the 11-nt donor
Outline: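 Sequenced counts of recombinant UMIs were turned into CPM, averaged across replicates and scaled with control-derived factors. The reported figure is log10(CPM+1). Those UMIs, each 12 nt long, tagged donor and donor-binding-loop pairs on a plasmid with a promoterless kanamycin gene, screened as a pool in Escherichia coli with IPTG (0.07 mM) plus kanamycin or without selection.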
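Further: IS621 bridge recombinase in Escherichia coli cells against a fixed T5 target plasmid.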

| Sequence | recombinant UMI read abundance (log10) |
| --- | --- |
| GTGCATGCATGGACCGGTTTTCCCGGTAATCCGTATTTGGT (site GTTCATGCTAC) | 0.448 |
| GTTGCTCCATGGACCGGTTTTCCCGGTAATCCGTATTTGGT (site GTTGCTCCTAC) | 0.00908 |
| TCACGCGCATGGACCGGTTTTCCCGGTAATCCGTATTTGCT (site TCACGCGCTAG) | 1.67 |
| AACCATCCATGGACCGGTTTTCCCGGTAATCCGTATTTGAT (site AACCTTCCTAT) | 0.431 |
| ACCTATACATGGACCGGTTTTCCCGGTAATCCGTATTTGAC (site AACTATACTGT) | 0 |
| TGGAATACATGGACCGGTTTTCCCGGTAATCCGTATTTGCA (site TCGAATACTTG) | 0.55 |
| GAGATAACATGGACCGGTTTTCCCGGTAATCCGTATTTGCG (site GAGATAACTCG) | 1.56 |
| TGTACACCATGGACCGGTTTTCCCGGTAATCCGTATTTGAG (site TGTACACCTTT) | 0.0116 |
| GGATTGGCATGGACCGGTTTTCCCGGTAATCCGTATTTGGT (site GGATTGGCTAC) | 1.46 |
| CGAAGTACATGGACCGGTTTTCCCGGTAATCCGTATTTGCG (site CGAAGTACTCG) | 2.12 |
| ATAGGTCCATGGACCGGTTTTCCCGGTAATCCGTATTTGTT (site ATAGGTCCTAA) | 0.95 |
| GCACGCGCATGGACCGGTTTTCCCGGTAATCCGTATTTGGT (site GCACGCGCTAC) | 1.22 |
| CACCGTACATGGACCGGTTTTCCCGGTAATCCGTATTTGCT (site CTCCGTACTAG) | 0.912 |
| ACTAGAGCATGGACCGGTTTTCCCGGTAATCCGTATTTGCA (site ACTAGAGCTTG) | 2.15 |
| GAGAAACCATGGACCGGTTTTCCCGGTAATCCGTATTTGGT (site GATAAACCTAC) | 0 |
| AATTAAACATGGACCGGTTTTCCCGGTAATCCGTATTTGTT (site AATTAAACTAA) | 0.00778 |
| GAGTGGCCATGGACCGGTTTTCCCGGTAATCCGTATTTGCA (site GACTGGCCTTG) | 0 |
| CCAGCAGCATGGACCGGTTTTCCCGGTAATCCGTATTTGCT (site CGAGCAGCTAG) | 0 |
| GGTCTGTCATGGACCGGTTTTCCCGGTAATCCGTATTTGAA (site GGTCTGTCTTT) | 0.0119 |

| Sequence | recombinant UMI read abundance (log10) |
| --- | --- |
| ATGGTAGCATGGACCGGTTTTCCCGGTAATCCGTATTTGGA (site ATGGTAGCTTC) | 1.72 |
| TGGAATACATGGACCGGTTTTCCCGGTAATCCGTATTTGCA (site TTGAATACTTG) | 0.00597 |
| CGGATAGCATGGACCGGTTTTCCCGGTAATCCGTATTTGTT (site CGGATAGCTAA) | 2 |
| TTTGAGGCATGGACCGGTTTTCCCGGTAATCCGTATTTGCT (site TTTGAGGCTAG) | 1.31 |
| TAGCGTTCATGGACCGGTTTTCCCGGTAATCCGTATTTGGT (site TAGCGTTCTAC) | 1.12 |
| TGCTAGGCATGGACCGGTTTTCCCGGTAATCCGTATTTGGT (site TGCTTGGCTAC) | 0.0132 |
| GCTACTTCATGGACCGGTTTTCCCGGTAATCCGTATTTGCC (site GCTACTGCTGG) | 0 |
| AGACGCGCATGGACCGGTTTTCCCGGTAATCCGTATTTGTA (site AGACGCGCTTA) | 2.72 |
| GGTAGAACATGGACCGGTTTTCCCGGTAATCCGTATTTGGC (site GATAGAACTGC) | 0 |
| CAAAGTCCATGGACCGGTTTTCCCGGTAATCCGTATTTGTA (site GAAAGTCCTTA) | 0.405 |
| CGCTCAACATGGACCGGTTTTCCCGGTAATCCGTATTTGCC (site CGCTCAACTGG) | 0.429 |
| AGAGAGACATGGACCGGTTTTCCCGGTAATCCGTATTTGCA (site AGGAAGACTTG) | 1.56 |
| ACTAGAACATGGACCGGTTTTCCCGGTAATCCGTATTTGAG (site ACAAGAACTCT) | 1.26 |
| ACACATCCATGGACCGGTTTTCCCGGTAATCCGTATTTGAC (site ACACTTCCTGT) | 0 |
| TTGTAGGCATGGACCGGTTTTCCCGGTAATCCGTATTTGGC (site GTGTAGGCTGC) | 0 |
| TCAGAAACATGGACCGGTTTTCCCGGTAATCCGTATTTGTA (site TCAGAAACTTA) | 2.07 |
| TAGGAATCATGGACCGGTTTTCCCGGTAATCCGTATTTGAG (site TAGGAATCTCT) | 3.1 |
| CCTATAGCATGGACCGGTTTTCCCGGTAATCCGTATTTGAT (site CCTAAAGCTAT) | 0 |
| TGTTCCCCATGGACCGGTTTTCCCGGTAATCCGTATTTGCA (site TGTTCCCCTTG) | 0.256 |

| Sequence | recombinant UMI read abundance (log10) |
| --- | --- |
| GATTGGCCATGGACCGGTTTTCCCGGTAATCCGTATTTGAC (site GATTGGACTGT) | 0 |
| GAGCATGCATGGACCGGTTTTCCCGGTAATCCGTATTTGGT (site GTGCATGCTAC) | 0.162 |
| AGTGTGTCATGGACCGGTTTTCCCGGTAATCCGTATTTGAC (site ATTGTGTCTGT) | 0 |
| CTACCAACATGGACCGGTTTTCCCGGTAATCCGTATTTGGA (site CTACGAACTTC) | 0 |
| CCCCACACATGGACCGGTTTTCCCGGTAATCCGTATTTGCA (site CCCCACACTTG) | 1.88 |
| AGTAGGACATGGACCGGTTTTCCCGGTAATCCGTATTTGCA (site AGTAGGACTTG) | 2.91 |
| CGTTTGGCATGGACCGGTTTTCCCGGTAATCCGTATTTGAT (site CGTTTGGCTAG) | 1.09 |
| GATTATTCATGGACCGGTTTTCCCGGTAATCCGTATTTGCT (site GATTATACTAG) | 0 |
| CGGAAGACATGGACCGGTTTTCCCGGTAATCCGTATTTGTT (site CGGAAGACTAA) | 2.3 |
| GATTATACATGGACCGGTTTTCCCGGTAATCCGTATTTGCT (site GATTATGCTAG) | 0 |
| AGGTTCCCATGGACCGGTTTTCCCGGTAATCCGTATTTGGG (site AGGTTCCCTCT) | 0.0453 |
| GAATATCCATGGACCGGTTTTCCCGGTAATCCGTATTTGCT (site GAATATCCTAG) | 1.3 |
| GGAAATCCATGGACCGGTTTTCCCGGTAATCCGTATTTGAA (site GGAAATCCTTT) | 0.994 |
| ACATCAACATGGACCGGTTTTCCCGGTAATCCGTATTTGTG (site ACATCCACTCA) | 0.0219 |
| CAGTCGACATGGACCGGTTTTCCCGGTAATCCGTATTTGAG (site CAGTCGACTCC) | 0.0115 |
| TGTCCGGCATGGACCGGTTTTCCCGGTAATCCGTATTTGGC (site TGCCCGGCTGC) | 0 |
| CCTGGTGCATGGACCGGTTTTCCCGGTAATCCGTATTTGAT (site CCAGGTGCTAT) | 0.00887 |
| ATAAGGCCATGGACCGGTTTTCCCGGTAATCCGTATTTGAT (site ATAAGGCCTTT) | 0.0201 |
| GTGGCTCCATGGACCGGTTTTCCCGGTAATCCGTATTTGTT (site GTGGCTCCTAA) | 0.00981 |
